Assays:
E. Coli (OD600 1.5) = assay: Antimicrobial kill efficacy test on treated substrate (E. Coli); type: cell-based; conditions: 1 hr; for Efficacy test Pass: 20 C.
Excerpt: The 100000 ppm stock solution is subsequently diluted to the silver metal loading concentrations ranging from 3000 ppm down to 10 ppm, as shown in table 1 (the final usage concentration). The solutions are then applied onto a standard fabric substrate, such as white cotton textile and tested for various characteristics. The substrates, after being treated with the solution, are coated with standardized microbes, such as E. Coli or MRSA and tested for antimicrobial kill efficacy. The treated substrates are subjected to a wash test to determine if the silver metal still remains adhered to the fabric after multiple washes. For high silver metal ppm fabrics, it is easy to determine if the color of the stain fades or washes out over time. For low-ppm, non-stained items, the substrate is subjected to a digestion method to calculate the silver concentration per unit area after a number of washes to determine if the silver is remaining stable or is washing out.

MRSA (Staphylococcus) = assay: Antimicrobial kill efficacy test on treated substrate (MRSA); type: cell-based; conditions: white cotton duvet, 60 C.-100 C., 1 hr
[1] = 10 ppm silver metal loading, white cotton fabric
[2] = 20 ppm silver metal loading, white cotton fabric
[3] = 100 ppm silver metal loading, white cotton fabric
[4] = 500 ppm silver metal loading, white cotton fabric
[5] = 1000 ppm silver metal loading, white cotton fabric

## [Ag(NH3)2]-formate [Example 6]
E. Coli (OD600 1.5); 10 ppm silver metal loading, Substrate = Dark Coolmax polyester fabric / Hand (Example 6: on skin)
  Efficacy test Pass: No
E. Coli (OD600 1.5); 20 ppm silver metal loading, Substrate = Dark Coolmax polyester fabric / Hand (Example 6: on skin)
  Efficacy test Pass: Yes
E. Coli (OD600 1.5); 100 ppm silver metal loading, Substrate = Dark Coolmax polyester fabric / Hand (Example 6: on skin)
  Efficacy test Pass: Yes
E. Coli (OD600 1.5); 500 ppm silver metal loading, Substrate = Dark Coolmax polyester fabric / Hand (Example 6: on skin)
  Efficacy test Pass: Yes
E. Coli (OD600 1.5); 1000 ppm silver metal loading, Substrate = Dark Coolmax polyester fabric / Hand (Example 6: on skin)
  Efficacy test Pass: Yes

## [Ag(NH3)2]-carbonate [Example 1]
E. Coli (OD600 1.5); [1]
  Efficacy test Pass?: No
E. Coli (OD600 1.5); [2]
  Efficacy test Pass?: Yes
E. Coli (OD600 1.5); [3]
  Efficacy test Pass?: Yes
E. Coli (OD600 1.5); [4]
  Efficacy test Pass?: Yes
E. Coli (OD600 1.5); [5]
  Efficacy test Pass?: Yes

## [Cu(NH3)4(H2O)n]SO4 [Example 8]
MRSA (Staphylococcus); 10 ppm zinc metal loading
  Efficacy test Pass: No
MRSA (Staphylococcus); 20 ppm zinc metal loading
  Efficacy test Pass: Yes
MRSA (Staphylococcus); 100 ppm zinc metal loading
  Efficacy test Pass: Yes
MRSA (Staphylococcus); 500 ppm zinc metal loading
  Efficacy test Pass: Yes
MRSA (Staphylococcus); 1000 ppm zinc metal loading
  Efficacy test Pass: Yes

## [Ag(NH3)2]-fluoride [Example 4]
E. Coli (OD600 1.5); 10 ppm silver metal loading, white Coolmax polyester fabric
  Efficacy test Pass: No
E. Coli (OD600 1.5); 20 ppm silver metal loading, white Coolmax polyester fabric
  Efficacy test Pass: Yes
E. Coli (OD600 1.5); 100 ppm silver metal loading, white Coolmax polyester fabric
  Efficacy test Pass: Yes
E. Coli (OD600 1.5); 500 ppm silver metal loading, white Coolmax polyester fabric
  Efficacy test Pass: Yes
E. Coli (OD600 1.5); 1000 ppm silver metal loading, white Coolmax polyester fabric
  Efficacy test Pass: Yes
MRSA (Staphylococcus); 10 ppm copper metal loading
  Efficacy test Pass: Yes
MRSA (Staphylococcus); 20 ppm copper metal loading
  Efficacy test Pass: Yes
MRSA (Staphylococcus); 100 ppm copper metal loading
  Efficacy test Pass: Yes
MRSA (Staphylococcus); 500 ppm copper metal loading
  Efficacy test Pass: Yes
MRSA (Staphylococcus); 1000 ppm copper metal loading
  Efficacy test Pass: Yes

## [Ag(NH3)2]-formate [Example 5]
E. Coli (OD600 1.5); 10 ppm silver metal loading, dark Coolmax polyester fabric
  Efficacy test Pass: No
E. Coli (OD600 1.5); 20 ppm silver metal loading, dark Coolmax polyester fabric
  Efficacy test Pass: Yes
E. Coli (OD600 1.5); 100 ppm silver metal loading, dark Coolmax polyester fabric
  Efficacy test Pass: Yes
E. Coli (OD600 1.5); 500 ppm silver metal loading, dark Coolmax polyester fabric
  Efficacy test Pass: Yes
E. Coli (OD600 1.5); 1000 ppm silver metal loading, dark Coolmax polyester fabric
  Efficacy test Pass: Yes

## [Ag(NH3)2]-oxalate [Example 3]
E. Coli (OD600 1.5); [1]
  Efficacy test Pass: No
E. Coli (OD600 1.5); [2]
  Efficacy test Pass: Yes
E. Coli (OD600 1.5); [3]
  Efficacy test Pass: Yes
E. Coli (OD600 1.5); [4]
  Efficacy test Pass: Yes
E. Coli (OD600 1.5); [5]
  Efficacy test Pass: Yes

Source: US20210329924A1, “METAL-BASED ANTIMICROBIAL COMPOSITION AND METHOD OF USING” (Microbonds Inc., priority 2020, published 2021)
